Measurements reported in patent US20100317607A1, “USE OF COMPOUNDS FOR PREPARING ANTI-TUBERCULOSIS AGENTS” (INFECTIOUS DISEASE RESEARCH INSTITUTE, priority 2007, published 2010).
In brackets after ≈: the same amount, converted by molar mass. Counter-ions that a name gives are not always drawn.

What was measured:
[1] = system: non replicating phase of M. tuberculosis (H37Rv with a plasmid with an acetimidase promoter driving a luciferase gene); experiment: microbe, parasite or virus in culture; type: cell-based; conditions: non replicating M. tuberculosis H37Rv luciferase strain; for MIC: Mycobacterium tuberculosis, read-out: LORA (TB growth inhibition, MIC)
[2] = system: H37Rv strain of M. tuberculosis; experiment: Alamar Blue Susceptibility Test (MABA); type: cell-based; conditions: H37Rv strain of M. tuberculosis, Alamar Blue; for MIC: Mycobacterium tuberculosis, read-out: MABA (TB growth inhibition, colourimetric assay)

c1ccc2c(NC3C4CC5CC(C4)CC3C5)nc(N3CCOCC3)nc2c1 (stereo not shown) [Compound 16, N-(2′-Adamantyl)-2-morpholinoquinazolin-4-amine]
LORA (TB growth inhibition, MIC) [1]: +++ (10-50 μM=+++) | MABA (TB growth inhibition, colourimetric assay) [2]: +++ (10-50 μM=+++)

CC(Nc1nc(N2CCCC2)nc2ccccc12)c1ccccc1 (stereo not shown) [Compound 14, N-(1-Phenylethyl)-2-(pyrrolidin-1-yl)quinazolin-4-amine]
MIC [1]: 10 to 50 µM (≈ 3.18 to 15.9 µg/mL) | MIC [2]: 10 to 50 µM (≈ 3.18 to 15.9 µg/mL)

CC(Nc1nc(N2CCN(S(C)(=O)=O)CC2)nc2ccccc12)c1ccccc1 (stereo not shown) [Compound 10, 2-(4-(Methylsulfonyl)piperazin-1-yl)-N-(1-phenylethyl)quinazolin-4-amine]
MIC [1]: 10 to 50 µM (≈ 4.12 to 20.6 µg/mL) | MIC [2]: 50 to 128 µM (≈ 20.6 to 52.7 µg/mL)

C[C@@H](Nc1nc(N2CCCCC2)nc2ccccc12)c1ccccc1 [Compound 39, (R)—N-(1-Phenylethyl)-2-(piperidin-1-yl)quinazolin-4-amine]
MIC [1]: 10 to 50 µM (≈ 3.32 to 16.6 µg/mL) | MIC [2]: < 10 µM

c1ccc2c(c1)CCN(c1nc(N3CCCCC3)nc3ccccc13)C2 [Compound 36, 4-(3,4-Dihydroisoquinolin-2(1H)-yl)-2-(piperidin-1-yl)quinazoline]
MIC [1]: 10 to 50 µM (≈ 3.44 to 17.2 µg/mL) | MIC [2]: < 10 µM

Fc1ccc(CNc2nc(N3CCCCC3)nc3ccccc23)c(F)c1 [Compound 115, N-(2,4-Difluorobenzyl)-2-(piperidin-1-yl)quinazolin-4-amine hydrochloride]
MIC [1]: 10 to 50 µM | MIC [2]: < 10 µM

Clc1ccc(N2CCN(c3nc(NCc4ccccc4)c4ccccc4n3)CC2)cc1 [Compound 134, N-Benzyl-2-(4-(4-chlorophenyl)piperazin-1-yl)quinazolin-4-amine hydrochloride]
MIC [1]: 10 to 50 µM | MIC [2]: < 10 µM

CN1CCN(c2nc(NCc3ccccc3)c3ccccc3n2)CC1 [Compound 6, N-Benzyl-2-(4-methylpiperazin-1-yl)quinazolin-4-amine hydrochloride]
MIC [1]: 50 to 128 µM | MIC [2]: 50 to 128 µM

Fc1cccc(CNc2nc(N3CCCCC3)nc3ccccc23)c1 [Compound 64, N-(3-Fluorobenzyl)-2-(piperidin-1-yl)quinazolin-4-amine]
MIC [1]: 10 to 50 µM (≈ 3.36 to 16.8 µg/mL) | MIC [2]: < 10 µM

c1ccc(CNc2cc(N3CCCCC3)nc3ccccc23)cc1 [Compound 54, N-Benzyl-2-(piperidin-1-yl)quinolin-4-amine]
MIC [1]: < 10 µM | MIC [2]: < 10 µM

CC(C)(Nc1nc(N2CCCCC2)nc2ccccc12)c1ccc(F)cc1 [Compound 120, N-(2-(4-Fluorophenyl)propan-2-yl)-2-(piperidin-1-yl)quinazolin-4-amine]
MIC [1]: 10 to 50 µM (≈ 3.64 to 18.2 µg/mL) | MIC [2]: < 10 µM

Fc1ccc(CNc2nc(NCc3ccc(F)cc3)c3ccc(F)cc3n2)cc1 [Compound 157, 7-Fluoro-N^2, N^4-bis(4-fluorobenzyl)quinazoline-2,4-diamine]
MIC [2]: < 10 µM

CC(C)(C)C(=O)N1CCN(c2nc(NCc3ccccc3)c3ccccc3n2)CC1 [Compound 57, 1-(4-(4-(Benzylamino)quinazolin-2-yl)piperazin-1-yl)-2,2-dimethylpropan-1-one]
MIC [2]: 10 to 50 µM (≈ 4.04 to 20.2 µg/mL)

COc1cc2c(cc1OC)CN(c1nc(N3CCCC3)nc3ccccc13)CC2 [Compound 188, 4-(6,7-Dimethoxy-3,4-dihydroisoquinolin-2(1H)-yl)-2-(pyrrolidin-1-yl)quinazoline]
MIC [2]: 10 to 50 µM (≈ 3.9 to 19.5 µg/mL)

COC[C@H](Cc1ccccc1)Nc1nc(N2CCCCC2)nc2ccccc12 [Compound 144, (S)—N-(1-Methoxy-3-phenylpropan-2-yl)-2-(piperidin-1-yl)quinazolin-4-amine]
MIC [2]: 10 to 50 µM (≈ 3.77 to 18.8 µg/mL)

Fc1ccc(CNc2nc(NCc3ccc(C(F)(F)F)o3)c3ccccc3n2)cc1 [Compound 159, N^2-(4-Fluorobenzyl)-N4-((5-(trifluoromethyl)furan-2-yl)methyl)quinazoline-2,4-diamine hydrochloride]
MIC [2]: < 10 µM

O=C(c1ccccc1)N1CCN(c2nc(NCc3ccc(F)cc3)c3ccccc3n2)CC1 [Compound 204, (4-(4-(4-Fluorobenzylamino)quinazolin-2-yl)piperazin-1-yl)(phenyl)methanone]
MIC [2]: 50 to 128 µM (≈ 22.1 to 56.5 µg/mL)

c1ccc2c(c1)CC(Nc1nc(N3CCCCC3)nc3ccccc13)C2 [Compound 86, N-(2,3-Dihydro-1H-inden-2-yl)-2-(piperidin-1-yl)quinazolin-4-amine hydrochloride]
MIC [2]: 10 to 50 µM

c1ccc(C2(Nc3nc(N4CCCC4)nc4ccccc34)CC2)cc1 [Compound 123, N-(1-Phenylcyclopropyl)-2-(pyrrolidin-1-yl)quinazolin-4-amine]
MIC [2]: 10 to 50 µM (≈ 3.3 to 16.5 µg/mL)

COc1ccccc1CNc1nc(N2CCCCC2)nc2ccccc12 [Compound 81, N-(2-Methoxybenzyl)-2-(piperidin-1-yl)quinazolin-4-amine hydrochloride]
MIC [2]: 10 to 50 µM

Fc1ccc(CNc2nc(NCCN3CCCCC3)nc3ccccc23)cc1 [Compound 209, N^4-(4-Fluorobenzyl)-N^2-(2-(piperidin-1-yl)ethyl)quinazoline-2,4-diamine hydrochloride]
MIC [2]: 50 to 128 µM

COc1cc2nc(N3CCC(F)(F)CC3)nc(NCc3ccc(F)cc3)c2cc1OC [Compound 151, 2-(4,4-Difluoropiperidin-1-yl)-N-(4-fluorobenzyl)-6,7-dimethoxyquinazolin-4-amine hydrochloride]
MIC [2]: 10 to 50 µM

Fc1ccc(CNc2nc(NCc3ccc(F)cc3)c3sccc3n2)cc1 [Compound 166, N^2,N^4-bis(4-Fluorobenzyl)thieno[3,2-d]pyrimidine-2,4-diamine]
MIC [2]: 10 to 50 µM (≈ 3.82 to 19.1 µg/mL)

FC1(F)CCN(c2nc(NCc3ccc(OC(F)(F)F)cc3)c3ccccc3n2)CC1 [Compound 163, 2-(4,4-Difluoropiperidin-1-yl)-N-(4-(trifluoromethoxy)benzyl)quinazolin-4-amine]
MIC [2]: 10 to 50 µM (≈ 4.38 to 21.9 µg/mL)

Fc1ccc(CNc2nc(N3CCCCC3)nc3cc(F)ccc23)cc1 [Compound 155, 7-Fluoro-N-(4-fluorobenzyl)-2-(piperidin-1-yl)quinazolin-4-amine]
MIC [2]: < 10 µM

Fc1ccc(CNc2nc(NCc3cc4ccccc4s3)nc3ccccc23)cc1 [Compound 171, N^2-(Benzo[b]thiophen-2-ylmethyl)-N^4-(4-fluorobenzyl)quinazoline-2,4-diamine]
MIC [2]: 10 to 50 µM (≈ 4.15 to 20.7 µg/mL)

c1ccc(C2CCN(c3nc(N4CCCCC4)nc4ccccc34)CC2)cc1 [Compound 90, 4-(4-Phenylpiperidin-1-yl)-2-(piperidin-1-yl)quinazoline]
MIC [2]: 10 to 50 µM (≈ 3.73 to 18.6 µg/mL)

Nc1nc(N)c2ccccc2n1 [Comparative compound 2, Quinazoline-2,4-diamine, reference compound]
MABA (TB growth inhibition, colourimetric assay) [2]: −

c1ccc(CNc2nc(N3CCSCC3)nc3ccccc23)cc1 [Compound 140, N-Benzyl-2-thiomorpholinoquinazolin-4-amine hydrochloride]
MIC [2]: < 10 µM

CCS(=O)(=O)N1CCN(c2nc(NCc3ccccc3)c3ccccc3n2)CC1 [Compound 26, N-Benzyl-2-(4-(ethylsulfonyl)piperazin-1-yl)quinazolin-4-amine]
MIC [2]: 50 to 128 µM (≈ 20.6 to 52.7 µg/mL)

O=[N+]([O-])c1ccc(NCCNc2nc(N3CCOCC3)nc3ccccc23)cc1 [Compound 7, N^1-(2-Morpholinoquinazolin-4-yl)-N^2-(4-nitrophenyl)ethane-1,2-diamine]
MIC [2]: 50 to 128 µM (≈ 19.7 to 50.5 µg/mL)

Cc1ccccc1CNc1nc(N2CCCCC2)nc2ccccc12 [Compound 104, N-(2-Methylbenzyl)-2-(piperidin-1-yl)quinazolin-4-amine hydrochloride]
MIC [2]: 10 to 50 µM

Fc1ccc(CNc2nc(N3CCCC3)nc3cccc(Cl)c23)cc1 [Compound 182, 5-Chloro-N-(4-fluorobenzyl)-2-(pyrrolidin-1-yl)quinazolin-4-amine]
MIC [2]: 10 to 50 µM (≈ 3.57 to 17.8 µg/mL)

OC[C@@H]1CCCN1c1nc(NCc2ccccc2)c2ccccc2n1 [Compound 177, (S)-(1-(4-(Benzylamino)quinazolin-2-yl)pyrrolidin-2-yl)methanol]
MIC [2]: 50 to 128 µM (≈ 16.7 to 42.8 µg/mL)

CC(C)(Nc1nc(N2CCCC2)nc2ccccc12)c1ccc(F)cc1 [Compound 121, N-(2-(4-Fluorophenyl)propan-2-yl)-2-(pyrrolidin-1-yl)quinazolin-4-amine]
MIC [2]: 10 to 50 µM (≈ 3.5 to 17.5 µg/mL)

Cc1ccc(C(C)(C)Nc2nc(N3CCCCC3)nc3ccccc23)cc1 [Compound 102, 2-(Piperidin-1-yl)-N-(2-p-tolylpropan-2-yl)quinazolin-4-amine]
MIC [2]: 10 to 50 µM (≈ 3.61 to 18 µg/mL)

c1ccc2c(CNc3nc(N4CCCCC4)nc4ccccc34)ccnc2c1 [Compound 195, 2-(Piperidin-1-yl)-N-(quinolin-4-ylmethyl)quinazolin-4-amine]
MIC [2]: 10 to 50 µM (≈ 3.69 to 18.5 µg/mL)

c1ccc(C(Nc2nc(N3CCCCC3)nc3ccccc23)c2ccccc2)cc1 [Compound 50, N-Benzhydryl-2-(piperidin-1-yl)quinazolin-4-amine]
MIC [2]: 10 to 50 µM (≈ 3.95 to 19.7 µg/mL)

Fc1ccc(CNc2nc(Nc3ccc(F)cc3)nc3ccccc23)cc1 [Compound 118, N^4-(4-Fluorobenzyl)-N^2-(4-fluorophenyl)quinazoline-2,4-diamine hydrochloride]
MIC [2]: 10 to 50 µM

Cc1ccc(C(C)(C)Nc2nc(N3CCCC3)nc3ccccc23)cc1 [Compound 103, 2-(Pyrrolidin-1-yl)-N-(2-p-tolylpropan-2-yl)quinazolin-4-amine]
MIC [2]: 10 to 50 µM (≈ 3.46 to 17.3 µg/mL)

CC(C)C(=O)N1CCN(c2nc(NCc3ccccc3)c3ccccc3n2)CC1 [Compound 56, 1-(4-(4-(Benzylamino)quinazolin-2-yl)piperazin-1-yl)-2-methylpropan-1-one]
MIC [2]: 50 to 128 µM (≈ 19.5 to 49.9 µg/mL)

Fc1ccc(Nc2nc(N3CCCC3)nc3nccnc23)cc1 [Compound 185, N-(4-Fluorophenyl)-2-(pyrrolidin-1-yl)pteridin-4-amine]
MIC [2]: 50 to 128 µM (≈ 15.5 to 39.7 µg/mL)

Fc1ccc(CNc2nc(N3CCC(F)(F)CC3)c3ccccc3n2)cc1 [Compound 149, 4-(4,4-Difluoropiperidin-1-yl)-N-(4-fluorobenzyl)quinazolin-2-amine hydrochloride]
MIC [2]: 10 to 50 µM

Nc1nc(N2CCCCC2)nc2ccccc12 [compound 1, 2-(Piperidin-1-yl)quinazolin-4-amine, reference compound]
MABA (TB growth inhibition, colourimetric assay) [2]: −
